In ChEMBL document CHEMBL4825757, “Optimization of 4,6-Disubstituted Pyrido[3,2-d]pyrimidines as Dual MNK/PIM Inhibitors to Inhibit Leukemia Cell Growth” (J Med Chem, 2021):
The source made the active and inactive calls. The rule behind the calls is not given here.

Assays:
[1] = molecular target: T1, MAP kinase-interacting serine/threonine-protein kinase 1 (Homo sapiens, UniProt Q9BUB5); assay: Inhibition of MKN1 (unknown origin) in presence of ATP by HTRF assay
Target sequence in this assay (Q9BUB5 whole entry): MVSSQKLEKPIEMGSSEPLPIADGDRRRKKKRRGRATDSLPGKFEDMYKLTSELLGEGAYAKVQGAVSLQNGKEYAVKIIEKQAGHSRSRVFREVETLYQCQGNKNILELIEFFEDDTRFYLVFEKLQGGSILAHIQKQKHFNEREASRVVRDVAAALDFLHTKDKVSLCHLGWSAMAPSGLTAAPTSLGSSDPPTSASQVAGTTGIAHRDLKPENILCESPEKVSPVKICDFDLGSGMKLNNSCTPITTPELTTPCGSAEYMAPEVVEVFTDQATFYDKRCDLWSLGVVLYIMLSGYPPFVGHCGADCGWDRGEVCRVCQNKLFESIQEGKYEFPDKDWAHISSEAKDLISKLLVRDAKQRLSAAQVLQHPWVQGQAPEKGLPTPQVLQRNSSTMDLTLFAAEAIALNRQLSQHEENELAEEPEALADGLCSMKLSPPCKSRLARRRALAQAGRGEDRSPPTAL

[2] = molecular target: MAP kinase-interacting serine/threonine-protein kinase 2 (Homo sapiens, UniProt Q9HBH9); assay: Inhibition of MKN2 (unknown origin) in presence of ATP by HTRF assay
MAP kinase-interacting serine/threonine-protein kinase 2, sequence (Q9HBH9 whole entry): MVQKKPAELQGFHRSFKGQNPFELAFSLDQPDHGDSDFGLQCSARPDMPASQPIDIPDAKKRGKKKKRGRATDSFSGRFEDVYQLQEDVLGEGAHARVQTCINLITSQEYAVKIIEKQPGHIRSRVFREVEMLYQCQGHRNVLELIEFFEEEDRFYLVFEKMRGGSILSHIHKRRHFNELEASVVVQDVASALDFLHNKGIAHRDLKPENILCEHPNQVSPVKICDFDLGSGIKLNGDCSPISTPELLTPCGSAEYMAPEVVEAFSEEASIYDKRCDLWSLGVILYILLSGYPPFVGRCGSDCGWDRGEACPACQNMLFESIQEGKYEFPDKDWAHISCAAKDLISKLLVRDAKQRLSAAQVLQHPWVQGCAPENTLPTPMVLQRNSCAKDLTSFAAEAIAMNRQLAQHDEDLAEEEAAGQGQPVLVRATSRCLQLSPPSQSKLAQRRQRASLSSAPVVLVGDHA

[3] = molecular target: T1, MAP kinase-interacting serine/threonine-protein kinase 1; assay: Inhibition of MKN1 (unknown origin) at 1 uM in presence of ATP by HTRF assay
Target sequence in this assay (Q9BUB5 whole entry, looked up): as the sequence (Q9BUB5 whole entry) above

MOLM-13 [4] = assay: Antiproliferative activity against human MOLM13 cells assessed as reduction of cell viability incubated for 72 hrs by trypan blue staining based cell counting analysis; type: functional
HL-60 = assay: Antiproliferative activity against human HL-60 cells assessed as reduction of cell viability incubated for 72 hrs by trypan blue staining based cell counting analysis; type: functional
K562 [5] = assay: Antiproliferative activity against human K562 cells assessed as reduction of cell viability incubated for 72 hrs by trypan blue staining based cell counting analysis; type: functional
[6] = molecular target: MAP kinase-interacting serine/threonine-protein kinase 1/2 (Homo sapiens) (UniProt Q9HBH9+Q9BUB5); assay: Inhibition of MNK1/MNK2 in human MOLM-13 cells assessed as reduction in eIF4E phosphorylation at 1 to 2 uM incubated for 12 hrs by western blot analysis; type: cell-based; details: dose 1-2 µM
[7] = molecular target: T2, Serine/threonine-protein kinase PIM (Homo sapiens) (UniProt P11309+Q9P1W9+Q86V86); assay: Inhibition of PIM in human MOLM-13 cells assessed as reduction of BAD phosphorylation at 1 to 2 uM incubated for 12 hrs by western blot analysis; type: cell-based; details: dose 1-2 µM
T2 sequence (P11309 whole entry, looked up): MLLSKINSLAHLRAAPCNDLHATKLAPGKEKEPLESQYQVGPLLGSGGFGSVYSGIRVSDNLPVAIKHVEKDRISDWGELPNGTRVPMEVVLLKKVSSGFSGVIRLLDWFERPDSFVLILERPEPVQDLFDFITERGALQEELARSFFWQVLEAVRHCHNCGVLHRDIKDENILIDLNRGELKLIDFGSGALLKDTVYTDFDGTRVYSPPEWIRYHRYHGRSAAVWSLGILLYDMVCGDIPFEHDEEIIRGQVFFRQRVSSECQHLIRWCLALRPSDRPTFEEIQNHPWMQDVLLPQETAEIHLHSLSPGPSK
T2 sequence (Q9P1W9 whole entry, looked up): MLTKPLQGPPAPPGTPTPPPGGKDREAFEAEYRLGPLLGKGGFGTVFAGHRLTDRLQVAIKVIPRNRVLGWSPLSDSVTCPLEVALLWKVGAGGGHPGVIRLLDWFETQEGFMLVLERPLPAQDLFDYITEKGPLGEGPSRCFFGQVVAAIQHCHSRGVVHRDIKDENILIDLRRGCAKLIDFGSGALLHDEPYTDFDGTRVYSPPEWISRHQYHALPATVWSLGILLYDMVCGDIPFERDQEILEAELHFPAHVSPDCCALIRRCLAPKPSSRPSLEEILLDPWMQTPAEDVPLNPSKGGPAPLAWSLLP

[8] = molecular target: T2, Serine/threonine-protein kinase PIM (Homo sapiens); assay: Inhibition of PIM in human MOLM-13 cells assessed as reduction in phosphorylated 4EBP1 at 1 to 2 uM incubated for 12 hrs by western blot analysis; type: cell-based; details: dose 1-2 µM
MOLM-13 [9] = assay: Downregulation of c-myc levels in human MOLM-13 cells at 1 to 2 uM incubated for 12 hrs by western blot analysis; type: functional, cell-based; details: dose 1-2 µM
MOLM-13 [10] = assay: Downregulation of mcl-1 levels in human MOLM-13 cells at 1 to 2 uM incubated for 12 hrs by western blot analysis; type: functional, cell-based; details: dose 1-2 µM
MOLM-13 [11] = assay: Downregulation of cyclin-D1 levels in human MOLM-13 cells at 1 to 2 uM incubated for 12 hrs by western blot analysis; type: functional, cell-based; details: dose 1-2 µM
K562 [12] = assay: Downregulation of c-myc levels in human K562 cells at 1 to 2 uM incubated for 24 hrs by western blot analysis; type: functional, cell-based; details: dose 1-2 µM
K562 [13] = assay: Downregulation of mcl-1 levels in human K562 cells at 1 to 2 uM incubated for 24 hrs by western blot analysis; type: functional, cell-based; details: dose 1-2 µM
K562 [14] = assay: Downregulation of cyclin-D1 levels in human K562 cells at 1 to 2 uM incubated for 24 hrs by western blot analysis; type: functional, cell-based; details: dose 1-2 µM
MOLM-13 [15] = assay: Induction of cell cycle arrest in human MOLM-13 cells assessed as sub-G1 phase at 1 uM incubated for 12 hr by propidium iodide based flow cytometry analysis (Rvb= 4.78%); type: functional
MOLM-13 [16] = assay: Induction of cell cycle arrest in human MOLM-13 cells assessed as G1 phase at 1 uM incubated for 12 hr by propidium iodide based flow cytometry analysis (Rvb= 51.29%); type: functional
MOLM-13 [17] = assay: Induction of cell cycle arrest in human MOLM-13 cells assessed as sub-G1 phase at 2 uM incubated for 12 hr by propidium iodide based flow cytometry analysis (Rvb= 4.78%); type: functional
MOLM-13 [18] = assay: Induction of cell cycle arrest in human MOLM-13 cells assessed as G1 phase at 2 uM incubated for 12 hr by propidium iodide based flow cytometry analysis (Rvb= 51.29%); type: functional
MOLM-13 [19] = assay: Induction of apoptosis in human MOLM-13 cells assessed as necrotic cells at 1 uM incubated for 12 hrs by annexin-V and propidium iodide staining based flow cytometry analysis (reference value: 0.06%); type: functional
MOLM-13 [20] = assay: Induction of apoptosis in human MOLM-13 cells assessed as necrotic cells at 2 uM incubated for 12 hrs by annexin-V and propidium iodide staining based flow cytometry analysis (reference value: 0.06%); type: functional
MOLM-13 [21] = assay: Induction of apoptosis in human MOLM-13 cells assessed as late apoptotic cells at 1 uM incubated for 12 hrs by annexin-V and propidium iodide staining based flow cytometry analysis (reference value: 3.03%); type: functional
MOLM-13 [22] = assay: Induction of apoptosis in human MOLM-13 cells assessed as late apoptotic cells at 2 uM incubated for 12 hrs by annexin-V and propidium iodide staining based flow cytometry analysis (reference value: 3.03%); type: functional
MOLM-13 [23] = assay: Induction of apoptosis in human MOLM-13 cells assessed as live cells at 1 uM incubated for 12 hrs by annexin-V and propidium iodide staining based flow cytometry analysis (reference value: 91.49%); type: functional
MOLM-13 [24] = assay: Induction of apoptosis in human MOLM-13 cells assessed as live cells at 2 uM incubated for 12 hrs by annexin-V and propidium iodide staining based flow cytometry analysis (reference value: 91.49%); type: functional
MOLM-13 [25] = assay: Induction of apoptosis in human MOLM-13 cells assessed as early apoptotic cells at 1 uM incubated for 12 hrs by annexin-V and propidium iodide staining based flow cytometry analysis (reference value: 5.40%); type: functional
MOLM-13 [26] = assay: Induction of apoptosis in human MOLM-13 cells assessed as early apoptotic cells at 2 uM incubated for 12 hrs by annexin-V and propidium iodide staining based flow cytometry analysis (reference value: 5.40%); type: functional
[27] = Metabolic stability in rat liver microsomes assessed as half life preincubated for 10 mins followed by NADPH addition and further incubated upto 60 mins by LC-MS/MS analysis; type: ADME, Microsome; details: time <=70 min
[28] = Intrinsic clearance in human liver microsomes preincubated for 10 mins followed by NADPH addition and further incubated upto 60 mins by LC-MS/MS analysis; type: ADME, Microsome; details: time <=70 min, read-out: CLH
[29] = Intrinsic clearance in rat liver microsomes preincubated for 10 mins followed by NADPH addition and further incubated upto 60 mins by LC-MS/MS analysis; type: ADME, Microsome; details: time <=70 min, read-out: CLH

For `CCCNC(=O)c1cccc(C#Cc2ccccc2Nc2ncnc3ccc(Cl)nc23)c1`, the IC50 [1] was greater than 10000 nM and the IC50 [2] was 3900 nM.
Work on `Cc1c(C(=O)N2CCNCC2)oc2ccc(Nc3ncnc4ccc(Cl)nc34)cc12` yielded an IC50 [1] greater than 10000 nM and an IC50 [2] of 1900 nM.
In the case of `CN(C)C(=O)c1cccc(C#Cc2ccccc2Nc2ncnc3ccc(Cl)nc23)c1`, the IC50 [1] is reported as greater than 10000 nM and the IC50 [2] is reported as greater than 10000 nM.
`O=C(c1cccc(-c2ccc3ncnc(Nc4ccc(F)cc4)c3n2)c1)N1CCNCC1` gave an IC50 [2] of 52 nM, an inhibition [3] of 70% and a GI50 (MOLM-13 [4]) of 6050 nM.
`Cc1ccc(Nc2ncnc3ccc(-c4ccc(C(=O)N5CCNCC5)cc4)nc23)cc1` gave an IC50 [2] of 62 nM, an inhibition [3] of 12% and a GI50 (MOLM-13 [4]) of 3540 nM.
Work on `O=C(c1ccc(-c2ccc3ncnc(Nc4ccccc4F)c3n2)cc1)N1CCNCC1` yielded an IC50 [2] of 10 nM, an inhibition [3] of 34% and a GI50 (MOLM-13 [4]) of 3080 nM.
For `CCCNC(=O)c1oc2ccc(Nc3ncnc4ccc(Cl)nc34)cc2c1C`, the IC50 [1] was greater than 10000 nM and the IC50 [2] was 1900 nM.
Work on `O=C(c1ccc(-c2ccc3ncnc(Nc4cccc(F)c4)c3n2)cc1)N1CCNCC1` yielded an IC50 [2] of 33 nM, an inhibition [3] of 70% and a GI50 (MOLM-13 [4]) of 3800 nM.
Work on `O=C(c1ccc(-c2ccc3ncnc(Nc4ccc(F)cc4)c3n2)cc1)N1CCNCC1` yielded an IC50 [1] of 1.1 nM, an IC50 [2] of 26 nM and an inhibition [3] of 83%. The GI50 (MOLM-13 [4]) was 7930 nM.
For `COC(=O)c1cccc(C#Cc2ccccc2Nc2ncnc3ccc(Cl)nc23)c1`, the IC50 [1] was greater than 10000 nM and the IC50 [2] was 4200 nM.
Molecule `CNC(=O)c1oc2ccc(Nc3ncnc4ccc(Cl)nc34)cc2c1C` has an IC50 [1] greater than 10000 nM and an IC50 [2] of 2500 nM.
In the case of `CNC(=O)c1cccc(C#Cc2ccccc2Nc2ncnc3ccc(Cl)nc23)c1`, the IC50 [1] is reported as greater than 10000 nM and the IC50 [2] is reported as 4900 nM.
With `COC(=O)c1oc2ccc(Nc3ncnc4ccc(Cl)nc34)cc2c1C` the IC50 [1] was greater than 10000 nM and the IC50 [2] was 4800 nM.
`O=C(c1cccc(-c2ccc3ncnc(Nc4ccccc4)c3n2)c1)N1CCNCC1` showed an IC50 [2] of 624 nM, an inhibition [3] of 57% and a GI50 (MOLM-13 [4]) of 3920 nM.
With `c1ccc(Nc2ncnc3ccc(-c4ccccc4)nc23)cc1` the IC50 [2] was 612 nM and the inhibition [3] was 0%.
With `O=C(c1cccc(C#Cc2ccccc2Nc2ncnc3ccc(Cl)nc23)c1)N1CCNCC1` the IC50 [1] was greater than 10000 nM and the IC50 [2] was 5000 nM.
`CN1CCC(CNc2ccc3ncc(-c4cccc(OC(F)(F)F)c4)n3n2)CC1` [SGI-1776] gave a GI50 (MOLM-13 [4]) of 130 nM, a GI50 (HL-60) of 1280 nM and a GI50 (K562 [5]) of 2190 nM. For the same molecule, the inhibition [6] was “inactive”, the inhibition [7] was “Active” and the inhibition [8] was “Active”. The Activity (MOLM-13 [9]) was “Active”, the Activity (MOLM-13 [10]) was “Active” and the Activity (MOLM-13 [11]) was “Active”. The Activity (K562 [12]) was “inactive”, the Activity (K562 [13]) was “inactive” and the Activity (K562 [14]) was “inactive”. For the same molecule, the Activity (MOLM-13 [15]) was 15.68%, the Activity (MOLM-13 [16]) was 67.94% and the Activity (MOLM-13 [17]) was 26.08%. For the same molecule, the Activity (MOLM-13 [18]) was 58.06%, the Activity (MOLM-13 [19]) was 0.22% and the Activity (MOLM-13 [20]) was 0.13%. It also gave an Activity (MOLM-13 [21]) of 4.05%, an Activity (MOLM-13 [22]) of 4.23% and an Activity (MOLM-13 [23]) of 71.17%. The Activity (MOLM-13 [24]) was 64.56%, the Activity (MOLM-13 [25]) was 24.57% and the Activity (MOLM-13 [26]) was 31.08%.
In the case of `O=C(c1ccc(-c2ccc3ncnc(Nc4ccccc4)c3n2)cc1)N1CCNCC1`, the IC50 [2] is reported as 36 nM, the inhibition [3] is reported as 71% and the GI50 (MOLM-13 [4]) is reported as 3190 nM.
Molecule `COc1cc(F)ccc1Nc1ncnc2ccc(-c3ccc(C(=O)N4CCNCC4)cc3)nc12` has an IC50 [1] of 1.2 nM, an IC50 [2] of 29 nM and an inhibition [3] of 89%. It also gave a GI50 (MOLM-13 [4]) of 1880 nM.
`COc1cc(Nc2ncnc3ccc(-c4ccc(C(=O)N5CCNCC5)cc4)nc23)ccc1F` showed an IC50 [1] of 1 nM, an IC50 [2] of 25 nM and an inhibition [3] of 90%. For the same molecule, the GI50 (MOLM-13 [4]) was 2850 nM.
`N#Cc1ccc(Nc2ncnc3ccc(-c4ccc(C(=O)N5CCNCC5)cc4)nc23)cc1` gave an IC50 [1] of 0.15 nM, an IC50 [2] of 43 nM and an inhibition [3] of 88%.
`O=C(c1ccc(-c2ccc3ncnc(Nc4ccc(O)cc4)c3n2)cc1)N1CCNCC1` showed an IC50 [1] of 8.5 nM, an IC50 [2] of 41 nM and an inhibition [3] of 86%. It also gave a GI50 (MOLM-13 [4]) of 11200 nM.
With `Cc1ncc2n1-c1ccc(Cl)cc1C(c1ccccc1F)=NC2` [MIDAZOLAM] the half-life [27] was 2.64 min, the CLint scaled [28] was 219 mL/min/kg and the CLint scaled [29] was 939 mL/min/kg.
With `COc1ccc(Nc2ncnc3ccc(-c4ccc(C(=O)N5CCNCC5)cc4)nc23)cc1` the IC50 [2] was 111 nM, the inhibition [3] was 7% and the GI50 (MOLM-13 [4]) was 10100 nM.
`O=C(c1cccc(C#Cc2ccccc2Nc2ncnc3ccc(Cl)nc23)c1)N1CCOCC1` gave an IC50 [1] greater than 10000 nM and an IC50 [2] greater than 10000 nM.
In the case of `Cc1c(C(=O)N(C)C)oc2ccc(Nc3ncnc4ccc(Cl)nc34)cc12`, the IC50 [1] is reported as greater than 10000 nM and the IC50 [2] is reported as 2200 nM.
`Cc1c(C(=O)N2CCOCC2)oc2ccc(Nc3ncnc4ccc(Cl)nc34)cc12` gave an IC50 [1] greater than 10000 nM and an IC50 [2] of 1800 nM.
Work on `CNC(=O)c1ccc(-c2ccc3ncnc(Nc4ccccc4)c3n2)cc1` yielded an IC50 [2] of 58 nM, an inhibition [3] of 37% and a GI50 (MOLM-13 [4]) of 1830 nM.
`O=C(c1ccc(-c2ccc3ncnc(Nc4ccc(C(F)(F)F)cc4)c3n2)cc1)N1CCNCC1` gave an IC50 [2] of 41 nM, an inhibition [3] of 0% and a GI50 (MOLM-13 [4]) of 2670 nM.
